One assay has as its system PC3 cells. Nature of the assay: Cell Viability Assay (ATPlite 1step), PC3. The following applies: Homo sapiens, PC-3, 72 hours; for percent inhibition of cell viability at 4 µM: PC3, 4 uM compound, read-out: Cell Viability % inhibition PC3 (4 uM Cpd); for percent inhibition of cell viability at 20 µM: PC3, 20 uM compound, read-out: Cell Viability % inhibition PC3 (20 uM Cpd). The format is cell-based. Here is the method: (§1) Cell Viability Assay Protocol
(§2) Cells were trypsinized, counted, and re-seeded into a 384-well tissue culture plate at 1000 cells per well in […] media. Cells were incubated at 37° C. in an atmosphere of 5% CO2 for 24 hours. Experimental compounds, initially dissolved in DMSO and diluted further in media were added to the wells and incubated for 72 hours. Cell viability was measured using the ATPlite 1step Luminescence Detection Assay system (Perkin Elmer) as described in the Assay kit instructions.
(§3) Cell Culture Lines and Media: (1) A2780 cells were cultured in RPMI media with 10% FBS and 1% antibiotics. Cells were typically split every 3-5 days at a 1:10 dilution; (2) PC3 cells were cultured in RPMI media with 10% FBS and 1% antibiotics. Cells were typically split every 3-5 days at a 1:4 dilution; (3) MCF-7 cells were grown in K-12F media with 10% FBS and 1% antibiotics. Cells were typically split every 3-5 days at a 1:10 dilution.
(In general: In ATP-based viability assays light output follows the ATP content of the culture.)

In a further assay the test system is A2780 cells. Kind of assay: Cell Viability Assay (ATPlite 1step), A2780. Format: cell-based. The following applies: Homo sapiens, 72 hours; for percent inhibition of cell viability at 4 µM: A2780, 4 uM compound, read-out: Cell Viability % inhibition A2780 (4 uM Cpd); for percent inhibition of cell viability at 20 µM: A2780, 20 uM compound, read-out: Cell Viability % inhibition A2780 (20 uM Cpd). The protocol: as §1, §2, §3

Turning to `Cc1ccc(C(=O)Nc2ccc(-c3cccc(N4CCN(C)CC4)c3)cn2)cn1` [Compound 37, N-{5-[3-(4-methylpiperazin-1-yl)phenyl]pyridin-2-yl}-6-methylpyridine-3-carboxamide], in the assay with PC3 cells, the percent inhibition of cell viability at 4 µM was 35.4% and the percent inhibition of cell viability at 20 µM is 61%. In addition, in the assay on A2780 cells, the percent inhibition of cell viability at 4 µM turned out to be 59.2% and the percent inhibition of cell viability at 20 µM was 70.8%.
Regarding `Cc1ccc(C(=O)Nc2ccc(-c3cccc(C4CC4)c3)cn2)cn1` [Compound 25, N-[5-(3-cyclopropylphenyl)pyridin-2-yl]-6-methylpyridine-3-carboxamide], in the assay with PC3 cells, the percent inhibition of cell viability at 4 µM was 50.3% and the percent inhibition of cell viability at 20 µM came out at 63.4%. Also, in the assay on A2780 cells, the percent inhibition of cell viability at 4 µM came out at 70.6% and the percent inhibition of cell viability at 20 µM is 81.1%.
The matching figures for `O=C(Nc1ccc(-c2ccccc2Cl)cn1)c1cncnc1` [Compound 4, N-[5-(2-chlorophenyl)pyridin-2-yl]pyrimidine-5-carboxamide]: 36%, 44.2%, 79.7% and 87.5%.
Regarding `O=C(Nc1ccc(-c2cccc(C3CC3)c2)cn1)c1cnccc1F` [Compound 39, N-[5-(3-cyclopropylphenyl)pyridin-2-yl]-4-fluoropyridine-3-carbox-amide], in the assay with PC3 cells, the percent inhibition of cell viability at 4 µM came to 19.2% and the percent inhibition of cell viability at 20 µM was found to be 28.7%. Besides, in the assay with A2780 cells, the percent inhibition of cell viability at 4 µM stood at 55.6% and the percent inhibition of cell viability at 20 µM was 58.7%.
On the same counts, the results for `O=C(Nc1ccc(-c2cccc(C3COC3)c2)cn1)c1cncnc1` [Compound 41, N-{5-[3-(oxetan-3-yl)phenyl]pyridin-2-yl}pyrimidine-5-carboxamide] are 74.5%, 80.9%, 74.7% and 88.9%.
The matching figures for `O=C(Nc1ccc(-c2cccc(C3CC3)c2)cn1)c1cnc(O)nc1` [Compound 60, N-[5-(3-cyclopropylphenyl)pyridin-2-yl]-2-hydroxypyrimidine-5-carboxamide]: 48.8%, 80.6%, 77.1% and 83.7%.
On the same counts, the results for `Cc1ccc(C(=O)Nc2ccc(-c3cccc(OC4CC4)c3)cn2)cn1` [Compound 29, N-{5-[3-(cyclopropyloxy)phenyl]pyridin-2-yl}-6-methylpyridine-3-carboxamide] are 60.5%, 69.5%, 74.4% and 83.1%.
As for `Cc1ncc(C(=O)Nc2ccc(-c3cccc(OCCN4CCN(C)CC4)c3)cn2)cn1` [Compound 38, N-{-5-[3-(2-(4-methylpiperazin-1-yl)ethoxy)phenyl]pyridin-2-yl}-2-methylpyrimidine-5-carboxamide], in the assay on PC3 cells, the percent inhibition of cell viability at 4 µM was found to be 39.9% and the percent inhibition of cell viability at 20 µM came to 61.2%. Further, in the assay on A2780 cells, the percent inhibition of cell viability at 4 µM stood at 51.7% and the percent inhibition of cell viability at 20 µM stood at 68.7%.
On the same counts, the results for `CN1CCN(c2cccc(-c3ccc(NC(=O)c4cccnc4)nc3)c2)CC1` [Compound 36, N-{5-[3-(4-methylpiperazin-1-yl)phenyl]pyridin-2-yl}pyridine-3-carboxamide] are 24.3%, 42.5%, 51.3% and 55.5%.
As for `O=C(Nc1ccc(-c2ccc(Cl)cc2)cn1)c1cncnc1` [Compound 2, N-[5-(4-chlorophenyl)pyridin-2-yl]pyrimidine-5-carboxamide], in the assay with PC3 cells, the percent inhibition of cell viability at 4 µM was found to be 4.9% and the percent inhibition of cell viability at 20 µM turned out to be 17.4%. Moreover, in the assay with A2780 cells, the percent inhibition of cell viability at 4 µM was found to be 19.5% and the percent inhibition of cell viability at 20 µM was 65.2%.
Regarding `O=C(Nc1ccc(-c2cccc(NC3CC3)c2)cn1)c1cccnc1` [Compound 32, N-{5-[3-(cyclopropylamino)phenyl]pyridin-2-yl}pyridine-3-carboxamide], in the assay on PC3 cells, the percent inhibition of cell viability at 4 µM was determined as 57.3% and the percent inhibition of cell viability at 20 µM stood at 57.6%. In the assay on A2780 cells, the percent inhibition of cell viability at 4 µM was found to be 71.9% and the percent inhibition of cell viability at 20 µM was determined as 77%.
On the same counts, the results for `COc1ncc(C(=O)Nc2ccc(-c3cccc(OC4CC4)c3)cn2)cn1` [Compound 57, N-{5-[3-(cyclopropyloxy)phenyl]pyridin-2-yl}-2-methoxypyrimidine-5-carboxamide] are 85.1%, 89%, 88.3% and 89.8%.
The matching figures for `Cc1ccc(C(=O)Nc2ccc(-c3cccc(NC4CC4)c3)cn2)cn1` [Compound 33, N-{5-[3-(cyclopropylamino)phenyl]pyridin-2-yl}-6-methylpyridine-3-carboxamide]: 56.1%, 54.9%, 69.5% and 74.8%.
`Cc1ncc(C(=O)Nc2ccc(-c3cc(O)cc(C4CC4)c3)cn2)cn1` [Compound 65, N-[5-(3-cyclopropyl-5-hydroxyphenyl)pyridin-2-yl]-2-methylpyrimidine-5-carboxamide]: in the assay on PC3 cells, the percent inhibition of cell viability at 4 µM was 80.5% and the percent inhibition of cell viability at 20 µM is 82.2%. Further, in the assay with A2780 cells, the percent inhibition of cell viability at 4 µM worked out at 85.9% and the percent inhibition of cell viability at 20 µM was determined as 89.8%.
On the same counts, the results for `NCCNc1ncc(C(=O)Nc2ccc(-c3cccc(OC4CC4)c3)cn2)cn1` [Compound 58, 2-[(2-aminoethyl)amino]-N-[5-(3-cyclopropyloxyphenyl)pyridin-2-yl]pyrimidine-5-carboxamide] are 77.7%, 93.6%, 86.6% and 91.1%.
On the same counts, the results for `O=C(Nc1ccc(-c2cccc(C3CCC3)c2)cn1)c1cncnc1` [Compound 45, N-[5-(3-cyclobutylphenyl)pyridin-2-yl]pyrimidine-5-carboxamide] are 80.8%, 83.3%, 87.6% and 86.4%.
On the same counts, the results for `O=C(Nc1ccc(-c2cccc(C3COC3)c2)cn1)c1cccnc1` [Compound 43, N-{5-[3-(oxetan-3-yl)phenyl]pyridin-2-yl}pyridine-3-carboxamide] are 75.1%, 84.5%, 82.6% and 86.7%.
Turning to `COc1ncc(C(=O)Nc2ccc(-c3cccc(C4CC4)c3)cn2)cn1` [Compound 59, N-[5-(3-cyclopropylphenyl)pyridin-2-yl]-2-methoxypyrimidine-5-carboxamide], the percent inhibition of cell viability at 4 µM with PC3 cells came to 82.6%; in the assay with A2780 cells, 87.8%. In addition, the percent inhibition of cell viability at 20 µM with PC3 cells came out at 88.5%; with A2780 cells it was 90.4%.
As for `CC(C)(C)c1cccc(-c2ccc(NC(=O)c3cncnc3)nc2)c1` [Compound 46, N-[5-(3-tert-butylphenyl)pyridin-2-yl]pyrimidine-5-carboxamide], in the assay with PC3 cells, the percent inhibition of cell viability at 4 µM is 68.5% and the percent inhibition of cell viability at 20 µM was determined as 67.6%. In the assay with A2780 cells, the percent inhibition of cell viability at 4 µM was 71.1% and the percent inhibition of cell viability at 20 µM is 71.8%.
On the same counts, the results for `O=C(Nc1ccc(-c2cccc(NC3CC3)c2)cn1)c1cncnc1` [Compound 30, N-{5-[3-(cyclopropylamino)phenyl]pyridin-2-yl}pyrimidine-5-carboxamide] are 63.4%, 71.9%, 77.4% and 78.7%.
The matching figures for `NCCNc1ncc(C(=O)Nc2ccc(-c3cccc(C4CC4)c3)cn2)cn1` [Compound 56, 2-[(2-aminoethyl)amino]-N-[5-(3-cyclopropylphenyl)pyridin-2-yl]pyrimidine-5-carboxamide]: 81.4%, 97.4%, 88% and 97.6%.
The matching figures for `O=C(Nc1ccc(-c2ccsc2)cn1)c1cncnc1` [Compound 7, N-[5-(thiophen-3-yl)pyridin-2-yl]pyrimidine-5-carboxamide]: 44.1%, 41.8%, 81.3% and 90.9%.

The values are drawn from patent US12383533B2 (Frost Biologic, Inc., priority 2014, dated 2025).
